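Where inhibition never reached the appropriate level, the endpoint shown equals the highest concentration tested. Otherwise, values were interpolated linearly from a five-concentration, 48-hour dose response in 96-well plates. GI50 is the concentration that inhibits growth by half.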 Activity calls are given as the source filed them. Rule as the data show it: active = GI50 up to about 1.1 µM and inactive = higher.
How the values were obtained:
Experiment in all cases: NCI-60 cell line screen, 48 h
A549 = test system: A549
RPMI-8226 = test system: RPMI-8226
SF-295 = test system: SF-295
MDA-MB-435 = test system: MDA-MB-435
NCI-H226 = test system: NCI-H226
OVCAR-4 = test system: OVCAR-4
OVCAR-5 = test system: OVCAR-5
SK-MEL-5 = test system: SK-MEL-5
SF-268 = test system: SF-268
HCT-15 = test system: HCT-15
SN12C = test system: SN12C
DU-145 = test system: DU-145
NCI-H23 = test system: NCI-H23
SNB-75 = test system: SNB-75
Hs-578T = test system: Hs-578T
SNB-19 = test system: SNB-19
SK-OV-3 = test system: SK-OV-3
MDA-MB-231 = test system: MDA-MB-231
KM12 = test system: KM12
ACHN = test system: ACHN
TK-10 = test system: TK-10
IGROV-1 = test system: IGROV-1
CAKI-1 = test system: CAKI-1
HCT-116 = test system: HCT-116
PC-3 = test system: PC-3
RXF 393 = test system: RXF 393
SK-MEL-28 = test system: SK-MEL-28
SF-539 = test system: SF-539
SR = test system: SR
MDA-N = test system: MDA-N
786-0 = test system: 786-0
OVCAR-3 = test system: OVCAR-3
Malme-3M = test system: Malme-3M
SK-MEL-2 = test system: SK-MEL-2
NCI/ADR-RES = test system: NCI/ADR-RES
NCI-H460 = test system: NCI-H460
UACC-257 = test system: UACC-257
M14 = test system: M14
OVCAR-8 = test system: OVCAR-8
HOP-62 = test system: HOP-62
U-251 = test system: U-251
EKVX = test system: EKVX
CCRF-CEM = test system: CCRF-CEM
SW-620 = test system: SW-620
HCC 2998 = test system: HCC 2998
A498 = test system: A498
UO-31 = test system: UO-31
LOX IMVI = test system: LOX IMVI
T47D = test system: T47D
K562 = test system: K562
HT-29 = test system: HT-29
BT-549 = test system: BT-549
MCF7 = test system: MCF7
MOLT-4 = test system: MOLT-4
HL-60 = test system: HL-60
NCI-H522 = test system: NCI-H522
UACC-62 = test system: UACC-62
COLO 205 = test system: COLO 205
HOP-92 = test system: HOP-92

Cc1cc(=O)[nH]c2c1C(=O)c1c(C)cc(=O)n(C)c1C2=O
GI50 (A549): 188 nM (active)
GI50 (RPMI-8226): 330 nM (active)
GI50 (SF-295): 167 nM (active)
GI50 (MDA-MB-435): 14.2 nM (active)
GI50 (NCI-H226): 29.3 nM (active)
GI50 (OVCAR-4): 195 nM (active)
GI50 (OVCAR-5): 166 nM (active)
GI50 (SK-MEL-5): 15.1 nM (active)
GI50 (SF-268): 129 nM (active)
GI50 (HCT-15): 123 nM
GI50 (SN12C): 74 nM (active)
GI50 (DU-145): 23.8 nM (active)
GI50 (NCI-H23): 14.2 nM (active)
GI50 (SNB-75): 17.6 nM (active)
GI50 (Hs-578T): 26.2 nM (active)
GI50 (SNB-19): 18.5 nM (active)
GI50 (SK-OV-3): 182 nM (active)
GI50 (MDA-MB-231): 303 nM (active)
GI50 (KM12): 67.8 nM (active)
GI50 (ACHN): 99.5 nM (active)
GI50 (TK-10): 192 nM (active)
GI50 (IGROV-1): 202 nM (active)
GI50 (CAKI-1): 67.8 nM (active)
GI50 (HCT-116): 100 nM (active)
GI50 (PC-3): 157 nM (active)
GI50 (RXF 393): 138 nM (active)
GI50 (SK-MEL-28): 19.1 nM (active)
GI50 (SF-539): 20.8 nM (active)
GI50 (SR): 125 nM (active)
GI50 (MDA-N): 18.4 nM (active)
GI50 (786-0): 54.5 nM (active)
GI50 (OVCAR-3): 50.8 nM (active)
GI50 (Malme-3M): 1.77 nM (active)
GI50 (SK-MEL-2): 20.8 nM (active)
GI50 (NCI/ADR-RES): 88.9 nM (active)
GI50 (NCI-H460): 187 nM (active)
GI50 (UACC-257): 15.2 nM (active)
GI50 (M14): 14.7 nM (active)
GI50 (OVCAR-8): 83.2 nM (active)
GI50 (HOP-62): 51.4 nM (active)
GI50 (U-251): 110 nM (active)
GI50 (EKVX): 205 nM (active)
GI50 (CCRF-CEM): 321 nM (active)
GI50 (SW-620): 41.9 nM (active)
GI50 (HCC 2998): 26.1 nM (active)
GI50 (A498): 214 nM (active)
GI50 (UO-31): 167 nM (active)
GI50 (LOX IMVI): 122 nM (active)
GI50 (T47D): 303 nM (active)
GI50 (K562): 122 nM (active)
GI50 (HT-29): 43 nM (active)
GI50 (BT-549): 22.8 nM (active)
GI50 (MCF7): 16.8 nM (active)
GI50 (MOLT-4): 212 nM (active)
GI50 (HL-60): 153 nM (active)
GI50 (NCI-H522): 46 nM (active)
GI50 (UACC-62): 17.1 nM (active)
GI50 (COLO 205): 16.2 nM (active)

CCCCN1C(=O)CS/C1=N/Nc1nc2c([nH]1)c(=O)n(C)c(=O)n2C
GI50 (A549): > 100000 nM (inactive)
GI50 (RPMI-8226): 42400 nM (inactive)
GI50 (SF-295): 7350 nM (inactive)
GI50 (MDA-MB-435): 14700 nM (inactive)
GI50 (NCI-H226): > 100000 nM (inactive)
GI50 (OVCAR-4): 19500 nM (inactive)
GI50 (OVCAR-5): 14500 nM (inactive)
GI50 (SK-MEL-5): 37800 nM (inactive)
GI50 (SF-268): 7740 nM (inactive)
GI50 (HCT-15): > 100000 nM
GI50 (SN12C): 33600 nM (inactive)
GI50 (DU-145): 19200 nM (inactive)
GI50 (NCI-H23): > 100000 nM (inactive)
GI50 (Hs-578T): 45400 nM (inactive)
GI50 (SNB-19): 37800 nM (inactive)
GI50 (SK-OV-3): 6470 nM (inactive)
GI50 (MDA-MB-231): 29000 nM (inactive)
GI50 (KM12): 6350 nM (inactive)
GI50 (ACHN): > 100000 nM (inactive)
GI50 (TK-10): > 100000 nM (inactive)
GI50 (IGROV-1): > 100000 nM (inactive)
GI50 (CAKI-1): > 100000 nM (inactive)
GI50 (HCT-116): 15200 nM (inactive)
GI50 (PC-3): > 100000 nM (inactive)
GI50 (RXF 393): > 100000 nM (inactive)
GI50 (SK-MEL-28): 20000 nM (inactive)
GI50 (SF-539): 37800 nM (inactive)
GI50 (SR): 11900 nM (inactive)
GI50 (MDA-N): 14600 nM (inactive)
GI50 (786-0): 17300 nM (inactive)
GI50 (OVCAR-3): 64100 nM (inactive)
GI50 (Malme-3M): 38800 nM (inactive)
GI50 (SK-MEL-2): 30000 nM (inactive)
GI50 (NCI/ADR-RES): > 100000 nM (inactive)
GI50 (NCI-H460): 13700 nM (inactive)
GI50 (UACC-257): > 100000 nM (inactive)
GI50 (M14): 28500 nM (inactive)
GI50 (HOP-62): 4620 nM (inactive)
GI50 (U-251): 15000 nM (inactive)
GI50 (EKVX): > 100000 nM (inactive)
GI50 (CCRF-CEM): 22200 nM (inactive)
GI50 (HCC 2998): > 100000 nM (inactive)
GI50 (A498): > 100000 nM (inactive)
GI50 (HOP-92): 43100 nM (inactive)
GI50 (UO-31): > 100000 nM (inactive)
GI50 (T47D): 34200 nM (inactive)
GI50 (K562): 30500 nM (inactive)
GI50 (HT-29): 23900 nM (inactive)
GI50 (BT-549): > 100000 nM (inactive)
GI50 (MCF7): 13700 nM (inactive)
GI50 (MOLT-4): 21800 nM (inactive)
GI50 (HL-60): > 100000 nM (inactive)
GI50 (NCI-H522): 61700 nM (inactive)
GI50 (UACC-62): 86500 nM (inactive)
GI50 (COLO 205): > 100000 nM (inactive)

Source: ChEMBL document CHEMBL1201862, “PubChem BioAssay data set” (2004)
